Test results taken from patent publication US9993478B2, “1-pyrazolyl-3-(4-((2-anilinopyrimidin-4-yl) oxy) napththalen-1-yl) ureas as P38 MAP knase inhibitors” (Respivert Ltd., priority 2011, dated 2018).

Test system: d-U937 cells
Assay: Cell viability: MTT assay
Assay type: cell-based, human
Settings: 1 μg/mL
Experimental: Differentiated U937 cells were pre-incubated with each test compound (final concentration 1 μg/mL or 10 μg/mL in 200 μL media indicated below) under two protocols: the first for 4 hr in 5% FCS RPMI1640 media and the second in 10% FCS RPMI1640 media for 24 h. The supernatant was replaced with new media (200 μL) and MTT stock solution (10 μL, 5 mg/mL) was added to each well. After incubation for 1 hr the media were removed, DMSO (200 μL) was added to each well and the plates were shaken lightly for 1 hr prior to reading the absorbance at 550 nm. The percentage loss of cell viability was calculated for each well relative to vehicle (0.5% DMSO) treatment. Consequently an apparent increase in cell viability for drug treatment relative to vehicle is tabulated as a negative percentage.

Compound | MTT Assay Cell viability at time point in d-U937 Cells 4 h | MTT Assay Cell viability at time point in d-U937 Cells 24 h
Cc1ccc(-n2nc(C(C)(C)C)cc2NC(=O)Nc2ccc(Oc3ccnc(Nc4cc(C)ccc4C)n3)c3ccccc23)cc1 [Example 10, 1-(3-(tert-butyl)-1-(p-tolyl)-1H-pyrazol-5-yl)-3-(4-((2-((2,5-dimethylphenyl)amino)pyrimidin-4-yl)oxy)naphthalen-1-yl)urea] | −ve (−ve and +ve indicate the value is below and above respectively, the no significant effect threshold defined as 30% inhibition at 1 μg/mL at the time point indicated) | −ve (−ve and +ve indicate the value is below and above respectively, the no significant effect threshold defined as 30% inhibition at 1 μg/mL at the time point indicated)
Cc1ccc(-n2nc(C(C)(C)C)cc2NC(=O)Nc2ccc(Oc3ccnc(Nc4ccccc4F)n3)c3ccccc23)cc1 [Example 4, 1-(3-(tert-butyl)-1-(p-tolyl)-1H-pyrazol-5-yl)-3-(4-((2-((2-fluorophenyl)amino)pyrimidin-4-yl)oxy)naphthalen-1-yl)urea] | −ve (−ve and +ve indicate the value is below and above respectively, the no significant effect threshold defined as 30% inhibition at 1 μg/mL at the time point indicated) | −ve (−ve and +ve indicate the value is below and above respectively, the no significant effect threshold defined as 30% inhibition at 1 μg/mL at the time point indicated)
Cc1ccc(-n2nc(C(C)(C)C)cc2NC(=O)Nc2ccc(Oc3ccnc(Nc4ccc(F)cc4)n3)c3ccccc23)cc1 [Example 23, 1-(3-(tert-butyl)-1-(p-tolyl)-1H-pyrazol-5-yl)-3-(4-((2-((4-fluorophenyl)amino)pyrimidin-4-yl)oxy)naphthalen-1-yl)urea] | −ve (−ve and +ve indicate the value is below and above respectively, the no significant effect threshold defined as 30% inhibition at 1 μg/mL at the time point indicated) | −ve (−ve and +ve indicate the value is below and above respectively, the no significant effect threshold defined as 30% inhibition at 1 μg/mL at the time point indicated)
COc1ccc(Nc2nccc(Oc3ccc(NC(=O)Nc4cc(C(C)(C)C)nn4-c4ccc(C)cc4)c4ccccc34)n2)cc1OC [Example 27, 1-(3-(tert-butyl)-1-(p-tolyl)-1H-pyrazol-5-yl)-3-(4-((2-((3,4-dimethoxyphenyl)amino)pyrimidin-4-yl)oxy)naphthalen-1-yl)urea] | +ve (−ve and +ve indicate the value is below and above respectively, the no significant effect threshold defined as 30% inhibition at 1 μg/mL at the time point indicated) | −ve (−ve and +ve indicate the value is below and above respectively, the no significant effect threshold defined as 30% inhibition at 1 μg/mL at the time point indicated)
Cc1ccc(-n2nc(C(C)(C)C)cc2NC(=O)Nc2ccc(Oc3ccnc(Nc4ccc(C)c(O)c4)n3)c3ccccc23)cc1 [Example 26, 1-(3-(tert-butyl)-1-(p-tolyl)-1H-pyrazol-5-yl)-3-(4-((2-((3-hydroxy-4-methylphenyl)amino)pyrimidin-4-yl)oxy)naphthalen-1-yl)urea] | −ve (−ve and +ve indicate the value is below and above respectively, the no significant effect threshold defined as 30% inhibition at 1 μg/mL at the time point indicated) | −ve (−ve and +ve indicate the value is below and above respectively, the no significant effect threshold defined as 30% inhibition at 1 μg/mL at the time point indicated)
Cc1ccc(-n2nc(C(C)(C)C)cc2NC(=O)Nc2ccc(Oc3ccnc(Nc4ccccc4C(C)C)n3)c3ccccc23)cc1 [Example 20, 1-(3-(tert-butyl)-1-(p-tolyl)-1H-pyrazol-5-yl)-3-(4-((2-((2-isopropylphenyl)amino)pyrimidin-4-yl)oxy)naphthalen-1-yl)urea] | −ve (−ve and +ve indicate the value is below and above respectively, the no significant effect threshold defined as 30% inhibition at 1 μg/mL at the time point indicated) | −ve (−ve and +ve indicate the value is below and above respectively, the no significant effect threshold defined as 30% inhibition at 1 μg/mL at the time point indicated)
COc1ccc(Nc2nccc(Oc3ccc(NC(=O)Nc4cc(C(C)(C)C)nn4-c4ccc(C)cc4)c4ccccc34)n2)c(OC)c1 [Example 8, 1-(3-(tert-butyl)-1-(p-tolyl)-1H-pyrazol-5-yl)-3-(4-((2-((2,4-dimethoxyphenyl)amino)pyrimidin-4-yl)oxy)naphthalen-1-yl)urea] | −ve (−ve and +ve indicate the value is below and above respectively, the no significant effect threshold defined as 30% inhibition at 1 μg/mL at the time point indicated) | −ve (−ve and +ve indicate the value is below and above respectively, the no significant effect threshold defined as 30% inhibition at 1 μg/mL at the time point indicated)
COc1cccc(Nc2nccc(Oc3ccc(NC(=O)Nc4cc(C(C)(C)C)nn4-c4ccc(C)cc4)c4ccccc34)n2)c1 [Example 14, 1-(3-(tert-butyl)-1-(p-tolyl)-1H-pyrazol-5-yl)-3-(4-((2-((3-methoxyphenyl)amino)pyrimidin-4-yl)oxy)naphthalen-1-yl)urea] | −ve (−ve and +ve indicate the value is below and above respectively, the no significant effect threshold defined as 30% inhibition at 1 μg/mL at the time point indicated) | −ve (−ve and +ve indicate the value is below and above respectively, the no significant effect threshold defined as 30% inhibition at 1 μg/mL at the time point indicated)
Cc1ccc(-n2nc(C(C)(C)C)cc2NC(=O)Nc2ccc(Oc3ccnc(Nc4ccc(Cl)cc4)n3)c3ccccc23)cc1 [Example 16, 1-(3-(tert-butyl)-1-(p-tolyl)-1H-pyrazol-5-yl)-3-(4-((2-((4-chlorophenyl)amino)pyrimidin-4-yl)oxy)naphthalen-1-yl)urea] | −ve (−ve and +ve indicate the value is below and above respectively, the no significant effect threshold defined as 30% inhibition at 1 μg/mL at the time point indicated) | −ve (−ve and +ve indicate the value is below and above respectively, the no significant effect threshold defined as 30% inhibition at 1 μg/mL at the time point indicated)
Cc1ccc(-n2nc(C(C)(C)C)cc2NC(=O)Nc2ccc(Oc3ccnc(Nc4ccc(O)cc4F)n3)c3ccccc23)cc1 [Example 30, 1-(3-(tert-butyl)-1-(p-tolyl)-1H-pyrazol-5-yl)-3-(4-((2-((2-fluoro-4-hydroxyphenyl)amino)pyrimidin-4-yl)oxy)naphthalen-1-yl)urea] | −ve (−ve and +ve indicate the value is below and above respectively, the no significant effect threshold defined as 30% inhibition at 1 μg/mL at the time point indicated) | −ve (−ve and +ve indicate the value is below and above respectively, the no significant effect threshold defined as 30% inhibition at 1 μg/mL at the time point indicated)
Cc1ccc(-n2nc(C(C)(C)C)cc2NC(=O)Nc2ccc(Oc3ccnc(Nc4cccc(F)c4)n3)c3ccccc23)cc1 [Example 15, 1-(3-(tert-butyl)-1-(p-tolyl)-1H-pyrazol-5-yl)-3-(4-((2-((3-fluorophenyl)amino)pyrimidin-4-yl)oxy)naphthalen-1-yl)urea] | −ve (−ve and +ve indicate the value is below and above respectively, the no significant effect threshold defined as 30% inhibition at 1 μg/mL at the time point indicated) | −ve (−ve and +ve indicate the value is below and above respectively, the no significant effect threshold defined as 30% inhibition at 1 μg/mL at the time point indicated)
Cc1ccc(-n2nc(C(C)(C)C)cc2NC(=O)Nc2ccc(Oc3ccnc(Nc4ccccc4Cl)n3)c3ccccc23)cc1 [Example 6, 1-(3-(tert-butyl)-1-(p-tolyl)-1H-pyrazol-5-yl)-3-(4-((2-((2-chlorophenyl)amino)pyrimidin-4-yl)oxy)naphthalen-1-yl)urea] | −ve (−ve and +ve indicate the value is below and above respectively, the no significant effect threshold defined as 30% inhibition at 1 μg/mL at the time point indicated) | −ve (−ve and +ve indicate the value is below and above respectively, the no significant effect threshold defined as 30% inhibition at 1 μg/mL at the time point indicated)
COc1ccc(Nc2nccc(Oc3ccc(NC(=O)Nc4cc(C(C)(C)C)nn4-c4ccc(C)cc4)c4ccccc34)n2)cc1 [Example 17, 1-(3-(tert-butyl)-1-(p-tolyl)-1H-pyrazol-5-yl)-3-(4-((2-((4-methoxyphenyl)amino)pyrimidin-4-yl)oxy)naphthalen-1-yl)urea] | −ve (−ve and +ve indicate the value is below and above respectively, the no significant effect threshold defined as 30% inhibition at 1 μg/mL at the time point indicated) | −ve (−ve and +ve indicate the value is below and above respectively, the no significant effect threshold defined as 30% inhibition at 1 μg/mL at the time point indicated)
